Assay: DPPH radicals scavenging capacity assay
Assay type: biochemical
Experimental: DPPH radicals scavenging capacity assay: The ability of the plant extract to scavenge DPPH free radicals was assessed by using the method described by Takao et al. (Takao et al., 1994).
The stock solution of the plant extract was prepared in methanol to achieve the concentration of 2000 μg/ml. Further, two-fold dilutions were made to obtain concentrations of 1000, 500, 250, 125, 62.5, 31.25, 15.62 μg/ml. Diluted solutions of extract (2 ml each) were mixed with 2 ml of DPPH methanol solution (80 μg/ml). After 30 min in darkness at room temperature, the absorbance was read in a spectrophotometer at 517 nm. The control samples consisted of 2 ml of methanol added to 2 ml of DPPH solution. Caffeoylquinic acid and ascorbic acid was used as a positive control. The experiment was performed in triplicate. Scavenging activity is expressed as the inhibition percentage calculated using the following equation: Scavenging activity (%)=100×[Acontrol−Asample)/Acontrol)], where Acontrol is the absorbance of the control and Asample is the absorbance of the extract.
It was obtained from the graph of scavenging activity (%) versus concentration of samples. Low IC50 value indicates strong ability of the extract to act as DPPH scavenger.
To evaluate the antioxidant activity of different fractions, an assay method based on the reduction of DPPH was performed.

SMILES	DPPH antioxidant assay IC50 (concentration at which 50% of DPPH radicals were scavenged, DPPH methanol solution 80 μg/ml, 30 min in darkness, absorbance 517 nm, triplicate) [µg/mL]	antioxidant activity (DPPH), conclusion in words (inferred from comparison of the 20% and 70% ethanol fractions)
O=C1O[C@H]([C@@H](O)CO)C(O)=C1O [Ascorbic Acid, ascorbic acid]	59.4	–
Cn1c(=O)c2c(ncn2C)n(C)c1=O [caffeine]	–	did not contribute to antioxidant activity

From patent publication US20240075088A1, “BIOACTIVE EXTRACTION METHOD” (Performance Labs Pte. Ltd., priority 2022, published 2024)
